According to patent publication US12497408B2, “Tetracyclic compounds and methods for the treatment of Zika virus infection” (priority 2021, dated 2025):

Tested on: ZIKV
Test: ZIKV reporter virus-based antiviral screening on Huh7 cells
Format: cell-based, Zika virus
Settings: Zika virus, Huh-7, 48 h, Huh7 cells infected with recombinant luciferase reporter ZIKV (MOI about 0.1), luciferase signal
Outline: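 Huh7 cells in 2% FBS assay medium infected at MOI about 0.1 with Renilla or Nano luciferase ZIKV premixed with nine-point compound dilutions, 48 hrs at 37° C. Luciferase signal normalized to DMSO controls as 100%; viability optionally by CellTiter-Glo with Rlu virus.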

In order of falling EC50:
1. COC(=O)N[C@H](C(=O)N1CCC[C@@]1(C)c1nc(Cl)c(-c2cc3c4c(c2)OCc2cc(-c5[nH]c([C@]6(C)CCCN6C(=O)[C@@H](NC(=O)OC)C(C)C)nc5Cl)cc(c2-4)OC3)[nH]1)C(C)C [Compound 64, dimethyl ((2S,2′S)-((2S,2′S)-((5,10-dihydrochromeno[5,4,3-cde]chromene-2,7-diyl)bis(4-chloro-1H-imidazole-5,2-diyl))bis(2-methylpyrrolidine-2,1-diyl))bis(3-methyl-1-oxobutane-1,2-diyl))dicarbamate]  234 nM
2. COC(=O)N[C@H](C(=O)N1[C@H](C)CC[C@H]1c1nc(Cl)c(-c2cc3c4c(c2)OCc2cc(-c5[nH]c([C@@H]6CC[C@@H](C)N6C(=O)[C@@H](NC(=O)OC)C(C)(C)C(F)(F)F)nc5Cl)cc(c2-4)OC3)[nH]1)C(C)(C)C(F)(F)F [Compound 65, dimethyl ((2S,2′S)-((2R,2′R,5S,5′S)-((5,10-dihydrochromeno[5,4,3-cde]chromene-2,7-diyl)bis(4-chloro-1H-imidazole-5,2-diyl))bis(2-methylpyrrolidine-5,1-diyl))bis(4,4,4-trifluoro-3,3-dimethyl-1-oxobutane-1,2-diyl))dicarbamate]  71.7 nM
3. CC[C@H](C)[C@H](NC(=O)OC)C(=O)N1CCC[C@@]1(C)c1nc(Cl)c(-c2cc3c4c(c2)OCc2cc(-c5[nH]c([C@]6(C)CCCN6C(=O)[C@@H](NC(=O)OC)[C@@H](C)CC)nc5Cl)cc(c2-4)OC3)[nH]1 [Compound 66, dimethyl ((2S,2′S,3S,3′S)-((2S,2′S)-((5,10-dihydrochromeno[5,4,3-cde]chromene-2,7-diyl)bis(4-chloro-1H-imidazole-5,2-diyl))bis(2-methylpyrrolidine-2,1-diyl))bis(3-methyl-1-oxopentane-1,2-diyl))dicarbamate]  44 nM
4. CC[C@H](C)[C@H](NC(=O)OC)C(=O)N1C[C@@H](C)C[C@H]1c1ncc(-c2cc3c4c(c2)OCc2cc(-c5[nH]c([C@@H]6C[C@H](C)CN6C(=O)[C@@H](NC(=O)OC)[C@@H](C)CC)nc5Cl)cc(c2-4)OC3)[nH]1 [Compound 67, methyl ((2S,3S)-1-((2S,4S)-2-(4-chloro-5-(7-(2-((2S,4S)-1-((methoxycarbonyl)-L-isoleucyl)-4-methylpyrrolidin-2-yl)-1H-imidazol-5-yl)-5,10-dihydrochromeno[5,4,3-cde]chromen-2-yl)-1H-imidazol-2-yl)-4-methylpyrrolidin-1-yl)-3-methyl-1-oxopentan-2-yl)carbamate]  23.9 nM
5. COC(=O)N[C@H](C(=O)N1[C@H](C)CC[C@H]1c1nc(Cl)c(-c2cc3c4c(c2)OCc2cc(-c5[nH]c([C@@H]6CC[C@@H](C)N6C(=O)[C@@H](NC(=O)OC)C(C)C)nc5Cl)cc(c2-4)OC3)[nH]1)C(C)C [Compound 62, dimethyl ((2S,2′S)-((2R,2′R,5S,5′S)-((5,10-dihydrochromeno[5,4,3-cde]chromene-2,7-diyl)bis(4-chloro-1H-imidazole-5,2-diyl))bis(2-methylpyrrolidine-5,1-diyl))bis(3-methyl-1-oxobutane-1,2-diyl))dicarbamate]  17.7 nM
6. CC[C@H](C)[C@H](NC(=O)OC)C(=O)N1C[C@@H](C)C[C@H]1c1ncc(-c2cc3c4c(c2)OCc2cc(-c5[nH]c([C@@H]6C[C@H](C)CN6C(=O)[C@@H](NC(=O)OC)[C@@H](C)CC)nc5C(C)C)cc(c2-4)OC3)[nH]1 [Compound 70, methyl ((2S,3S)-1-((2S,4S)-2-(4-isopropyl-5-(7-(2-((2S,4S)-1-((methoxycarbonyl)-L-isoleucyl)-4-methylpyrrolidin-2-yl)-1H-imidazol-5-yl)-5,10-dihydrochromeno[5,4,3-cde]chromen-2-yl)-1H-imidazol-2-yl)-4-methylpyrrolidin-1-yl)-3-methyl-1-oxopentan-2-yl)carbamate]  17.4 nM
7. CC[C@H](C)[C@H](NC(=O)OC)C(=O)N1[C@H](C)CC[C@H]1c1nc(Cl)c(-c2cc3c4c(c2)OCc2cc(-c5[nH]c([C@@H]6CC[C@@H](C)N6C(=O)[C@@H](NC(=O)OC)[C@@H](C)CC)nc5Cl)cc(c2-4)OC3)[nH]1 [Compound 63, dimethyl ((2S,2′S,3S,3′S)-((2R,2′R,5S,5′S)-((5,10-dihydrochromeno[5,4,3-cde]chromene-2,7-diyl)bis(4-chloro-1H-imidazole-5,2-diyl))bis(2-methylpyrrolidine-5,1-diyl))bis(3-methyl-1-oxopentane-1,2-diyl))dicarbamate]  16.4 nM
8. COC(=O)N[C@H](C(=O)N1C[C@@H](C)C[C@H]1c1nc(Cl)c(-c2cc3c4c(c2)OCc2cc(-c5[nH]c([C@@H]6C[C@H](C)CN6C(=O)[C@@H](NC(=O)OC)C(C)C)nc5Br)cc(c2-4)OC3)[nH]1)C(C)C [Compound 69, methyl ((S)-1-((2S,4S)-2-(4-bromo-5-(7-(4-chloro-2-((2S,4S)-1-((methoxycarbonyl)-L-valyl)-4-methylpyrrolidin-2-yl)-1H-imidazol-5-yl)-5,10-dihydrochromeno[5,4,3-cde]chromen-2-yl)-1H-imidazol-2-yl)-4-methylpyrrolidin-1-yl)-3-methyl-1-oxobutan-2-yl)carbamate]  11.6 nM
9. CC[C@H](C)[C@H](NC(=O)OC)C(=O)N1C[C@@H](C)C[C@H]1c1nc(Cl)c(-c2cc3c4c(c2)OCc2cc(-c5[nH]c([C@@H]6C[C@H](C)CN6C(=O)[C@@H](NC(=O)OC)[C@@H](C)CC)nc5Cl)cc(c2-4)OC3)[nH]1 [Compound 68, dimethyl ((2S,2′S,3S,3′S)-((3S,3′S,5S,5′S)-((5,10-dihydrochromeno[5,4,3-cde]chromene-2,7-diyl)bis(4-chloro-1H-imidazole-5,2-diyl))bis(3-methylpyrrolidine-5,1-diyl))bis(3-methyl-1-oxopentane-1,2-diyl))dicarbamate]  9.9 nM
10. COC(=O)N[C@H](C(=O)N1CC2(CC2)C[C@H]1c1nc(Cl)c(-c2cc3c4c(c2)OCc2cc(-c5[nH]c([C@@H]6CC7(CC7)CN6C(=O)[C@@H](NC(=O)OC)C(C)(C)C(F)(F)F)nc5Cl)cc(c2-4)OC3)[nH]1)C(C)(C)C(F)(F)F [Compound 61, dimethyl ((2S,2′S)-((6S,6′S)-((5,10-dihydrochromeno[5,4,3-cde]chromene-2,7-diyl)bis(4-chloro-1H-imidazole-5,2-diyl))bis(5-azaspiro[2.4]heptane-6,5-diyl))bis(4,4,4-trifluoro-3,3-dimethyl-1-oxobutane-1,2-diyl))dicarbamate]  2.8 nM
11. CC[C@H](C)[C@H](NC(=O)OC)C(=O)N1CC2(CC2)C[C@H]1c1nc(Cl)c(-c2cc3c4c(c2)OCc2cc(-c5[nH]c([C@@H]6CC7(CC7)CN6C(=O)[C@@H](NC(=O)OC)[C@@H](C)CC)nc5Cl)cc(c2-4)OC3)[nH]1 [Compound 60, dimethyl ((2S,2′S,3S,3′S)-((6S,6′S)-((5,10-dihydrochromeno[5,4,3-cde]chromene-2,7-diyl)bis(4-chloro-1H-imidazole-5,2-diyl))bis(5-azaspiro[2.4]heptane-6,5-diyl))bis(3-methyl-1-oxopentane-1,2-diyl))dicarbamate]  1.7 nM
